This is an account of results in ChEMBL document CHEMBL4118062, “Novel NO-releasing plumbagin derivatives: Design, synthesis and evaluation of antiproliferative activity” (Eur J Med Chem, 2017).

The structures appear in SMILES notation. Some results are limits rather than exact numbers.

Data set [1] concerns MDA-MB-231. As to the kind of experiment: Cytotoxicity against human MDA-MB-231 cells assessed as growth inhibition at 10 uM after 72 hrs by MTT assay relative to control. It counts as functional. The following applies: MDA-MB-231, 72 h, read-out: GI.
Data set [2] has as its system HepG2. As to the kind of experiment: Cytotoxicity against human HepG2 cells assessed as growth inhibition at 10 uM after 72 hrs by MTT assay relative to control. It counts as functional. The following applies: HepG2, 72 h, read-out: GI. (Formazan colour is commonly taken as a measure of viable cells.)
For data set [3], the system named is MDA-MB-231. As to the kind of experiment: Cytotoxicity against human MDA-MB-231 cells assessed as growth inhibition after 72 hrs by MTT assay. It counts as functional, cell-based. The conditions noted are these: MDA-MB-231, 72 h.
The subject of data set [4] is HepG2. As to the kind of experiment: Cytotoxicity against human HepG2 cells assessed as growth inhibition after 72 hrs by MTT assay. It counts as functional, cell-based. The following applies: HepG2, 72 h.
For the next data set, the system named is A549. As to the kind of experiment: Cytotoxicity against human A549 cells assessed as growth inhibition after 72 hrs by MTT assay. It counts as functional, cell-based. The following applies: A549, 72 h.
Data set [5] can be described thus: Selectivity ratio of IC50 for human HepG2 cells to IC50 for human MDA-MB-231 cells. The format is functional.
Data set [6] in a line: Selectivity ratio of IC50 for human A549 cells to IC50 for human MDA-MB-231 cells. It counts as functional.
The nature of data set [7]: Chemical stability in PBS at pH 6 at 1000 uM after 3 to 24 hrs by HPLC method. It counts as physicochemical. The following applies: buffer, pH 6, 1000 µM.
Data set [8] is described as follows: Chemical stability in PBS at pH 8 at 1000 uM after 24 hrs by HPLC method. It counts as physicochemical. The following applies: buffer, pH 8, 24 h.
The nature of data set [9]: Chemical stability in PBS at pH 7.4 assessed as parent compound remaining at 1000 uM after 24 hrs by HPLC method. The format is physicochemical. The conditions noted are these: read-out: Stability.
The nature of data set [10]: Drug degradation in PBS at pH 7.4 at 1000 uM after 24 hrs by HPLC method. The following applies: read-out: Drug degradation. It counts as physicochemical.
A short description of data set [11]: Drug degradation in PBS at pH 8 at 1000 uM after 24 hrs by HPLC method. The format is physicochemical. The conditions noted are these: read-out: Drug degradation.
For data set [12], the system named is MDA-MB-231. As to the kind of experiment: Cytotoxicity against human MDA-MB-231 cells assessed as growth inhibition at 20 uM after 72 hrs by MTT assay relative to control. It counts as functional. The conditions noted are these: MDA-MB-231, 72 h, read-out: GI.
The subject of data set [13] is HepG2. As to the kind of experiment: Cytotoxicity against human HepG2 cells assessed as growth inhibition at 20 uM after 72 hrs by MTT assay relative to control. The format is functional. The following applies: HepG2, 72 h, read-out: GI.
Data set [14] in a line: Drug metabolism in human MDA-MB-231 cells assessed as nitric oxide release at 30 uM after 0.5 to 30 hrs by Griess assay. It counts as ADME, cell-based. The conditions noted are these: mda-mb-231, 30 µM. (Nitrite, measured by Griess reagent, commonly stands in for NO production.)
The subject of data set [15] is MDA-MB-231. As to the kind of experiment: Cytotoxicity against human MDA-MB-231 cells assessed as growth inhibition at 40 uM after 72 hrs by MTT assay relative to control. It counts as functional. The conditions noted are these: MDA-MB-231, 72 h, read-out: GI.
In data set [16] the test system is HepG2. As to the kind of experiment: Cytotoxicity against human HepG2 cells assessed as growth inhibition at 40 uM after 72 hrs by MTT assay relative to control. The format is functional. The following applies: HepG2, 72 h, read-out: GI.

On to `CC1=C(CCC(=O)OCCOc2no[n+]([O-])c2S(=O)(=O)c2ccccc2)C(=O)c2c(O)cccc2C1=O`, for which the inhibition of growth at 10 µM with MDA-MB-231 [1] amounted to 97.6%; in the data set on HepG2 [2] it was 95.7%. The IC50 worked out at 1210 nM in the data set with MDA-MB-231 [3], 2.98 µM in the data set on HepG2 [4] and 9.31 µM in the data set on A549. For the same compound, the “Ratio IC50” value worked out at 2.5 in data set [5] and 7.7 in data set [6]. In addition, the Stability result in data set [7] and in [8] was “Stable” each time. In addition, the remaining at 24 h, 1000 µM in data set [9] is more than 98%.
In the case of `CC1=CC(=O)c2c(O)cccc2C1=O` [PLUMBAGIN], the figures for the inhibition of growth at 10 µM in the data set on MDA-MB-231 [1] and in the data set on HepG2 [2] were 32.8% and 41%, respectively. The figures for the IC50 in the data set with MDA-MB-231 [3], in the data set with HepG2 [4] and with A549 were 14200 nM, 10.7 µM and 12.4 µM, respectively. In addition, the “Ratio IC50” value in [5] came to 0.7; in [6], 0.9. In addition, in [7], the Stability entry is recorded as “Stable”. Also, the degraded at 24 h, 1000 µM in data set [10] and in data set [11] was more than 95% each time.
For `CC1=C(C(C)CC(=O)OCCCCOc2no[n+]([O-])c2S(=O)(=O)c2ccccc2)C(=O)c2c(O)cccc2C1=O` (centres undefined), the inhibition of growth at 10 µM in the data set on MDA-MB-231 [1] was determined as 92.7%; with HepG2 [2], 89.2%. Also, the IC50 was found to be 1980 nM with MDA-MB-231 [3], 4.24 µM with HepG2 [4] and 19.6 µM with A549. In addition, the “Ratio IC50” value is listed as 2.1 in [5] and 10 in data set [6].
As for `CC1=C(CCCC(=O)OCCOc2no[n+]([O-])c2S(=O)(=O)c2ccccc2)C(=O)c2c(O)cccc2C1=O`, the inhibition of growth at 10 µM in the data set on MDA-MB-231 [1] worked out at 97.9%; with HepG2 [2], 95.1%. Moreover, the IC50 in the data set on MDA-MB-231 [3] stood at 1520 nM; in the data set with HepG2 [4], 4.16 µM; in the data set with A549, 10.2 µM. The entries for the “Ratio IC50” value in [5] and in data set [6] were 2.7 and 6.7, respectively.
Turning to `CC1=C(CCCC(=O)O)C(=O)c2c(O)cccc2C1=O`, the inhibition of growth at 20 µM in the data set on MDA-MB-231 [12] was found to be 6.1%; in the data set with HepG2 [13], 23.2%.
As for `CC(=O)c1cc2c(o1)C(=O)c1ccccc1C2=O` [NAPABUCASIN], the IC50 with MDA-MB-231 [3] is 340 nM; with HepG2 [4], 0.66 µM; in the data set on A549, 0.74 µM. Besides, the entries for the “Ratio IC50” value in data set [5] and in data set [6] were 1.8 and 2.2, respectively.
For the compound `CC1=C(C(C)CC(=O)OCCCOc2no[n+]([O-])c2S(=O)(=O)c2ccccc2)C(=O)c2c(O)cccc2C1=O` (centres undefined), the inhibition of growth at 10 µM in the data set with MDA-MB-231 [1] was 95.3%; in the data set with HepG2 [2], 92.7%. The figures for the IC50 in the data set on MDA-MB-231 [3], in the data set with HepG2 [4] and in the data set with A549 were 2420 nM, 4.32 µM and 13.9 µM, respectively. Also, the “Ratio IC50” value in data set [5] is reported as 1.8; in data set [6], 5.8. Moreover, the Drug metabolism result in data set [14] is “Metabolite_Detected”.
For `CC1=C(CCC(=O)O)C(=O)c2c(O)cccc2C1=O`, the figures for the inhibition of growth at 40 µM in the data set with MDA-MB-231 [15] and in the data set on HepG2 [16] were 5% and 20.3%, respectively.
The matching figures for `CC1=C(CC(=O)O)C(=O)c2c(O)cccc2C1=O`: 2.4% and 11%.
`CC1=C(CC(=O)OCCCOc2no[n+]([O-])c2S(=O)(=O)c2ccccc2)C(=O)c2c(O)cccc2C1=O`: the inhibition of growth at 10 µM amounted to 97.7% in the data set on MDA-MB-231 [1] and 97.2% in the data set on HepG2 [2]. The IC50 worked out at 1760 nM in the data set on MDA-MB-231 [3], 4.41 µM in the data set with HepG2 [4] and 7 µM with A549. Further, the “Ratio IC50” value in data set [5] turned out to be 2.5; in data set [6], 4.
For the compound `CC1=C(C(C)CC(=O)OCC(C)COc2no[n+]([O-])c2S(=O)(=O)c2ccccc2)C(=O)c2c(O)cccc2C1=O` (centres undefined), the inhibition of growth at 10 µM in the data set on MDA-MB-231 [1] amounted to 94.4%; in the data set on HepG2 [2], 91.5%. The figures for the IC50 in the data set on MDA-MB-231 [3], with HepG2 [4] and in the data set with A549 were 2110 nM, 3.74 µM and 12.8 µM, respectively. In addition, the “Ratio IC50” value came out at 1.8 in [5] and 6.1 in data set [6]. For the same compound, the Drug metabolism entry in [14] was “Metabolite_Detected”.
As for `CC1=C(CC(=O)OCCCCOc2no[n+]([O-])c2S(=O)(=O)c2ccccc2)C(=O)c2c(O)cccc2C1=O`, the inhibition of growth at 10 µM with MDA-MB-231 [1] was determined as 96.3%; with HepG2 [2], 87.2%. For the same compound, the figures for the IC50 in the data set on MDA-MB-231 [3], in the data set on HepG2 [4] and in the data set with A549 were 5200 nM, 7.72 µM and more than 20 µM, respectively. Also, the “Ratio IC50” value is given as 1.5 in data set [5] and more than 3.8 in [6]. In addition, the Drug metabolism result in [14] is recorded as “Metabolite_Detected”.
Regarding `CC1=C(CC(=O)OCCOc2no[n+]([O-])c2S(=O)(=O)c2ccccc2)C(=O)c2c(O)cccc2C1=O`, the inhibition of growth at 10 µM in the data set with MDA-MB-231 [1] worked out at 97.3%; in the data set on HepG2 [2], 93.3%. Also, the IC50 in the data set on MDA-MB-231 [3] amounted to 3270 nM; in the data set on HepG2 [4], 6.11 µM; in the data set on A549, 18.6 µM. In addition, the “Ratio IC50” value in [5] stood at 1.9.
On to `CC1=C(CCC(=O)OCC(C)COc2no[n+]([O-])c2S(=O)(=O)c2ccccc2)C(=O)c2c(O)cccc2C1=O` (centres undefined), for which the inhibition of growth at 10 µM in the data set on MDA-MB-231 [1] was 97.4%; with HepG2 [2] it was 73.4%. The IC50 worked out at 2670 nM in the data set on MDA-MB-231 [3], 6.69 µM in the data set on HepG2 [4] and 18.2 µM in the data set on A549. The “Ratio IC50” value in data set [5] amounted to 2.5; in data set [6] it was 6.8. The Drug metabolism result in data set [14] is “Metabolite_Detected”.
Consider `CC1=C(CC(=O)OCC(C)COc2no[n+]([O-])c2S(=O)(=O)c2ccccc2)C(=O)c2c(O)cccc2C1=O` (centres undefined), for which the values for the inhibition of growth at 10 µM in the data set on MDA-MB-231 [1] and in the data set with HepG2 [2] were 97.3% and 96.6%, respectively. Moreover, the figures for the IC50 in the data set with MDA-MB-231 [3], with HepG2 [4] and with A549 were 1510 nM, 3 µM and 5.83 µM, respectively. Further, the “Ratio IC50” value was 2 in [5] and 3.9 in data set [6]. Further, the Drug metabolism result in [14] is recorded as “Metabolite_Detected”.
In the case of `CC1=C(CCC(=O)OCCCOc2no[n+]([O-])c2S(=O)(=O)c2ccccc2)C(=O)c2c(O)cccc2C1=O`, the results for the inhibition of growth at 10 µM with MDA-MB-231 [1] and with HepG2 [2] were 96.8% and 95.1%, respectively. The IC50 with MDA-MB-231 [3] is 4310 nM; with HepG2 [4] it was 6.79 µM; in the data set on A549, more than 20 µM. Besides, the entries for the “Ratio IC50” value in data set [5] and in data set [6] were 1.6 and more than 4.7, respectively. The Drug metabolism result in data set [14] is recorded as “Metabolite_Detected”.
For `CC1=C(CCC(=O)OCCCCOc2no[n+]([O-])c2S(=O)(=O)c2ccccc2)C(=O)c2c(O)cccc2C1=O`, the inhibition of growth at 10 µM came out at 97.6% with MDA-MB-231 [1] and 95.4% in the data set on HepG2 [2]. The IC50 in the data set with MDA-MB-231 [3] amounted to 1240 nM; in the data set on HepG2 [4] it was 3.33 µM; in the data set with A549, 8.31 µM. In addition, the “Ratio IC50” value amounted to 2.7 in [5] and 6.7 in data set [6]. Besides, the Drug metabolism entry in data set [14] was “Metabolite_Detected”.

As a reminder, the IC50 is the concentration that inhibits the measured activity by half.
